Results taken from patent US20050042701A1, “Anti-petasin antibodies, methods for the production thereof and their use” (priority 1998, published 2005).
Like-named read-outs stand apart in the source and are kept apart here.

Experiment: 1st phase clinical test: pharmacokinetics of petasin in serum after single oral administration of tablets containing butterbur extract (open crossover; enzyme immunoassay)
Format: in vivo, human (clinically healthy men)
Details: for AUCRest: single oral, mean ± SD; for Petasin serum concentration Mean / concentration at 0 h: 0 h p.a.; for concentration at 0 h / concentration at 0.25 h / concentration at 0.5 h / concentration at 0.75 h / concentration at 1 h / concentration at 1.17 h / concentration at 1.5 h / concentration at 1.833 h / concentration at 2.167 h / concentration at 2.5 h / concentration at 3 h / concentration at 4 h / concentration at 5 h / concentration at 6 h / concentration at 8 h / concentration at 12 h / concentration at 24 h: male, human, serum, oral; for concentration at 0.25 h: 0.25 h p.a.; for concentration at 0.5 h: 0.5 h p.a.; for concentration at 0.75 h: 0.75 h p.a.; for concentration at 1 h: 1 h p.a.; for concentration at 1.17 h: 1.17 h p.a.; for concentration at 1.5 h: 1.5 h p.a.; for concentration at 1.833 h: 1.833 h p.a.; for concentration at 2.167 h: 2.167 h p.a.; for concentration at 2.5 h: 2.5 h p.a.; for concentration at 4 h: 4 h p.a.; for concentration at 5 h: 5 h p.a.; for concentration at 6 h: 6 h p.a.; for concentration at 8 h: 8 h p.a.; for concentration at 12 h: 12 h p.a.; for concentration at 24 h: 24 h p.a.
Experimental: Petasin ovalbumin is adsorptively bound to polystyrene microtitration plates in a concentration of […] in 0.1 M carbonate buffer, pH=9.5, (100 μl/well) for 16 hours at 4° C. and thereupon sucked off. After washing it two times with 300 μl/well washing buffer (PBS, 0.1% Tween 20) it is blocked for 2 hours at room temperature with 150 μl/well blocking solution (0.6% gelatine, 0.02% […] in PBS) and subsequently washed three times with washing buffer.
50 μl of the serum sample to be tested or the respective standard (1:4 dilution in a sample buffer (PBS, 1% BSA, 0.1% Tween 20, 0.01% thiomersal) and 50 μL of an optimized anti-serum dilution in a sample buffer are simultaneously incubated with shaking for 1 hour at room temperature. Subsequently, the microtitration plate is washed three times with 300 μl/well of washing buffer and incubated for 30 min. at room temperature with 100 μl of anti-rabbit immunoglobulin peroxidase conjugate, diluted in sample buffer, and once more washed as above. Thereupon, it is incubated for 10 min. with 100 μl of a substrate solution ready for use (3.3′, 5.5′-tetramethyl benzidine) per well and the reaction is stopped by adding 100 μl/well of 0.5 M sulfuric acid. The evaluation is carried out at 450 nm in a microtitration plate reader.
In a 1st phase of the clinical test for determining the pharmacokinetic parameters of tablets containing butterbur extract was a single oral administrations of 2 or 4 tablets to 24 clinically healthy men at the age between 18 and 40 years.
The open, crossover test was chosen as method, single administration of each dose in a randomized order with an interval of at least 7 days between the administrations.
Model-independent pharmacokinetic parameters for petasin Statistical methods:
ANOVA, ANOVAlog, Wilcoxon-Mann-Whitney test, Wilcoxon-sign order test

[1] = 2 tablets, after administering 2 tablets, read-out: Petasin serum concentration Max.
[2] = 2 tablets, after administering 2 tablets, read-out: Petasin serum concentration Mean
[3] = 2 tablets, after administering 2 tablets, read-out: Petasin serum concentration Min.
[4] = 2 tablets, after administering 2 tablets, read-out: Petasin serum concentration Median

## C=C(C)C1CC2(C)C(=CC1=O)CCC(OC(=O)/C(C)=C\C)C2C (centres unmarked) [petasin]
2 tablets
  AUCRest: 18.3 ± 7.9%
2 versus 4 tablets
  Dose dependence of Cmax and AUC: nearly proportional to the dose
4 tablets versus 2 tablets
  Medium maximum petasin concentration (Cmax) after double the dose: nearly doubled
  Medium time of reaching the maximum serum level (tmax) after double the dose: remains constant
4 tablets
  AUCRest: 10.8 ± 4.9%
After administering 4 tablets
  Petasin serum concentration Mean: <1 ng/mL
After administering 4 tablets, listed as Petasin
  Petasin serum concentration Mean: 0.0 ng/mL
After administering 4 tablets, 3 h p.a.
  Petasin serum concentration Max.: 49.0 ng/mL
[1]
  concentration at 0 h: 0 ng/mL
  concentration at 0.25 h: 5.5 ng/mL
  concentration at 0.5 h: 23.3 ng/mL
  concentration at 0.75 h: 23.8 ng/mL
  concentration at 1 h: 29.3 ng/mL
  concentration at 1.17 h: 62.9 ng/mL
  concentration at 1.5 h: 47.3 ng/mL
  concentration at 1.833 h: 44.3 ng/mL
  concentration at 2.167 h: 31.7 ng/mL
  concentration at 2.5 h: 26.6 ng/mL
  concentration at 4 h: 11.2 ng/mL
  concentration at 5 h: 8.8 ng/mL
  concentration at 6 h: 8.1 ng/mL
  concentration at 8 h: 4.2 ng/mL
  concentration at 12 h: 2.9 ng/mL
  concentration at 24 h: 2.3 ng/mL
[2]
  concentration at 0 h: 0 ng/mL
  concentration at 0.25 h: 2.8 ng/mL
  concentration at 0.5 h: 7.6 ng/mL
  concentration at 0.75 h: 11.9 ng/mL
  concentration at 1 h: 15.6 ng/mL
  concentration at 1.17 h: 21 ng/mL
  concentration at 1.5 h: 19.3 ng/mL
  concentration at 1.833 h: 18.2 ng/mL
  concentration at 2.167 h: 16.3 ng/mL
  concentration at 2.5 h: 13.6 ng/mL
  concentration at 4 h: 4.5 ng/mL
  concentration at 5 h: 4.1 ng/mL
  concentration at 6 h: 3.2 ng/mL
  concentration at 8 h: 1.9 ng/mL
  concentration at 12 h: 1.6 ng/mL
  concentration at 24 h: 1.5 ng/mL
[3]
  concentration at 0 h: 0 ng/mL
  concentration at 0.25 h: 1.1 ng/mL
  concentration at 0.5 h: 1.5 ng/mL
  concentration at 0.75 h: 4 ng/mL
  concentration at 1 h: 4 ng/mL
  concentration at 1.17 h: 5.6 ng/mL
  concentration at 1.5 h: 5.1 ng/mL
  concentration at 1.833 h: 7.8 ng/mL
  concentration at 2.167 h: 7.3 ng/mL
  concentration at 2.5 h: 5.9 ng/mL
  concentration at 4 h: 1.7 ng/mL
  concentration at 5 h: 1.5 ng/mL
  concentration at 6 h: 1.2 ng/mL
  concentration at 8 h: 1 ng/mL
  concentration at 12 h: 1.1 ng/mL
  concentration at 24 h: 1.1 ng/mL
[4]
  concentration at 0.25 h: 2.2 ng/mL
  concentration at 0.5 h: 5.9 ng/mL
  concentration at 0.75 h: 11 ng/mL
  concentration at 1 h: 14.7 ng/mL
  concentration at 1.17 h: 15.3 ng/mL
  concentration at 1.5 h: 16.1 ng/mL
  concentration at 1.833 h: 14.7 ng/mL
  concentration at 2.167 h: 14.5 ng/mL
  concentration at 2.5 h: 10.2 ng/mL
  concentration at 4 h: 5.2 ng/mL
  concentration at 5 h: 3.4 ng/mL
  concentration at 6 h: 3.1 ng/mL
  concentration at 8 h: 1.6 ng/mL
  concentration at 12 h: 1.4 ng/mL
  concentration at 24 h: 1.3 ng/mL
2 tablets, after administering 2 tablets, 3 h p.a., read-out: Petasin serum concentration Max.
  concentration at 3 h: 18.3 ng/mL
2 tablets, after administering 2 tablets, 3 h p.a., read-out: Petasin serum concentration Mean
  concentration at 3 h: 8.8 ng/mL
2 tablets, after administering 2 tablets, 3 h p.a., read-out: Petasin serum concentration Median
  concentration at 3 h: 7.7 ng/mL
2 tablets, after administering 2 tablets, 3 h p.a., read-out: Petasin serum concentration Min.
  concentration at 3 h: 3.1 ng/mL
4 tablets, after administering 4 tablets, read-out: Petasin serum concentration Max.
  concentration at 0 h: 0 ng/mL
4 tablets, after administering 4 tablets, read-out: Petasin serum concentration Median
  concentration at 0 h: < 1 ng/mL
